Drawing on patent US8299093B2, “Small molecule inhibitors of retroviral assembly and maturation” (New York Blood Center, Inc., priority 2008, dated 2012), this text covers CC50 and IC50 for 43 molecules.

Series [1] in a line: XTT cytotoxicity assay in MT-2 cells. The format is cell-based. The note with it: human, cell type not given. The method, then: Briefly, for MT-2 cells, 100 μL of small molecule at graded concentrations was added to an equal volume of cells (5×10^4 cells/ml) in 96-well plates followed by incubation at 37° C. for 4 days, which ran parallel to the neutralization assay in MT-2 (except medium was added instead of virus). In the case of PBMC, 2.5×10^5 cells/mL were used and the cytotoxicity was measured after 7 days. After addition of XTT (PolySciences, Inc.), the soluble intracellular formazan was quantitated calorimetrically at 450 nm 4 hours later with a reference at 620 nm. The CC50 values were calculated.

A further series has as its system HIV-1. Nature of the series: Inhibition of HIV-1 infectivity (p24 ELISA) in MT-2 cells, laboratory-adapted HIV-1 strains. The note with it: Human immunodeficiency virus 1, MT2, 96 h, MT-2 cells, p24 ELISA day 4. The format is cell-based. The method, then: AZT was used as a positive control in the infectivity assays. In brief, 1×10^4 MT-2 cells (lymphocytes) were infected with HIV-1 at 100 TCID50 (50% tissue culture infective dose, 0.01 MOI [multiplicity of infection]) in 200 μL RPMI 1640 medium containing 10% FBS in the presence or absence of small molecules at graded concentrations overnight. The culture supernatants were then removed and fresh media containing freshly prepared test compounds were added. On the fourth day post-infection, 100 μL of culture supernatants were collected from each well, mixed with equal volume of 5% TRITON X-100® and tested for p24 antigen by ELISA®.
A general note: ELISA stands for enzyme-linked immunosorbent assay.

Where [2] appears, read: Table 1, formula I, read-out: CC50 (concentration that causes 50% cytotoxicity).
Where [3] appears, read: read-out: IC50 (concentration that provides 50% inhibition of HIV-1 p24), Table 1, formula I.
Where [4] appears, read: Table 2, formula II, read-out: CC50.

Like-named read-outs stand apart in the source and are kept apart here.

For `Cc1ccccc1C(=O)N(Cc1ccco1)Cc1cc2cccc(C)c2[nH]c1=O` [NYAD-S31], the CC50 in series [1] (setting [2]) is greater than 10 µM. The IC50 in the series on HIV-1 (setting [3]) was greater than 10 µM.

In the case of `Cc1cccc2cc(CN(Cc3ccco3)C(=O)c3cccs3)c(O)nc12` [NYAD-S25], the CC50 in series [1] (setting [2]) is greater than 10 µM. In addition, the IC50 with HIV-1 (setting [3]) was greater than 10 µM.

For `CCc1ccc2[nH]c(=O)c(CN(Cc3ccco3)C(=O)c3ccccc3)cc2c1` [NYAD-S99], the CC50 in series [1] (setting [2]) was greater than 10 µM. For the same molecule, the IC50 in the series on HIV-1 (setting [3]) was greater than 10 µM.

As to `Cc1ccc2[nH]c(=O)c(CN(Cc3cccnc3)C(=O)c3ccco3)cc2c1` [NYAD-S46], the CC50 in series [1] (setting [2]) was greater than 10 µM. The IC50 in the series with HIV-1 (setting [3]) is greater than 10 µM.

As for `Cc1ccc2[nH]c(=O)c(CN(Cc3ccco3)C(=O)c3ccccc3F)cc2c1` [NYAD-S49], in series [1] (setting [2]), the CC50 is greater than 10 µM. Also, in the series on HIV-1 (setting [3]), the IC50 is greater than 10 µM.

Turning to `CCOc1ccc2[nH]c(=O)c(CN(Cc3ccco3)C(=O)c3ccco3)cc2c1` [NYAD-S106], in series [1] (setting [2]), the CC50 was greater than 10 µM. Also, the IC50 in the series with HIV-1 (setting [3]) is greater than 10 µM.

Consider `Cc1ccc2[nH]c(=O)c(CN(Cc3ccco3)C(=O)c3ccccc3)cc2c1` [NYAD-S45], for which the CC50 in series [1] (setting [2]) was greater than 10 µM. In the series with HIV-1 (setting [3]), the IC50 was less than 10 µM.

Consider `Cc1ccc2[nH]c(=O)c(CN(Cc3ccco3)C(=O)c3ccc(Cl)c(Cl)c3)cc2c1` [NYAD-S6-6], for which the CC50 in series [1] (setting [2]) is greater than 10 µM. The IC50 in the series on HIV-1 (setting [3]) is less than 10 µM.

`Cc1ccc2cc(CN(Cc3ccco3)C(=O)c3ccc(F)cc3)c(=O)[nH]c2c1` [NYAD-S28]: the CC50 in series [1] (setting [2]) is greater than 10 µM. Further, in the series on HIV-1 (setting [3]), the IC50 is greater than 10 µM.

Take `COc1ccc2[nH]c(=O)c(CN(Cc3ccco3)C(=O)c3ccc(C)cc3)cc2c1` [NYAD-S100]: the CC50 in series [1] (setting [2]) was greater than 10 µM. Further, the IC50 in the series on HIV-1 (setting [3]) was less than 10 µM.

On to `CCOc1ccc(C(=O)N(Cc2ccco2)Cc2cc3ccc(C)cc3[nH]c2=O)cc1` [NYAD-S24], for which the CC50 in series [1] (setting [2]) is greater than 10 µM. For the same molecule, in the series on HIV-1 (setting [3]), the IC50 is greater than 10 µM.

As for `CCOc1ccc2[nH]c(=O)c(CN(Cc3ccc(F)cc3)C(=O)c3ccco3)cc2c1` [NYAD-S95], the CC50 in series [1] (setting [2]) was greater than 10 µM. Also, in the series on HIV-1 (setting [3]), the IC50 was greater than 10 µM.

As for `Cc1ccc(C)c2[nH]c(=O)c(CN(Cc3ccco3)C(=O)c3ccc(Br)cc3)cc12` [NYAD-S85], the CC50 in series [1] (setting [2]) was greater than 10 µM. In addition, the IC50 in the series on HIV-1 (setting [3]) is greater than 10 µM.

For `Cc1cc(=O)n2c3ccccc3n(CC(O)CN3CCN(CCOc4ccc(Cl)cc4)CC3)c2c1C#N` (centres unmarked) [NYAD-S16], the CC50 in series [1] (setting [4]) was greater than 10 µM. In the series on HIV-1 (Table 2, formula II), the IC50 was less than 10 µM.

For `Cc1ccc2cc(CN(Cc3ccco3)C(=O)c3cccc(F)c3)c(=O)[nH]c2c1` [NYAD-S81], the CC50 in series [1] (setting [2]) was greater than 10 µM. The IC50 in the series on HIV-1 (setting [3]) is less than 10 µM.

Take `Cc1cccc(C(=O)N(Cc2ccco2)Cc2cc3cccc(C)c3[nH]c2=O)c1` [NYAD-S26]: the CC50 in series [1] (setting [2]) was greater than 10 µM. For the same molecule, the IC50 in the series with HIV-1 (setting [3]) was greater than 10 µM.

Consider `Cc1cc(=O)n2c3ccccc3n(CC(O)CCl)c2c1C#N` (centres unmarked) [NYAD-S62], for which, in series [1] (setting [4]), the CC50 is greater than 10 µM. The same molecule showed an IC50 with HIV-1 (Table 2, formula II) greater than 10 µM.

`Cc1ccc2[nH]c(=O)c(CN(Cc3ccco3)C(=O)c3ccc(F)c(Cl)c3)cc2c1` [NYAD-S6-10]: the CC50 in series [1] (setting [2]) is greater than 10 µM. Moreover, the IC50 in the series with HIV-1 (setting [3]) was less than 10 µM.

Take `Cc1cccc2cc(CN(Cc3ccco3)C(=O)c3ccccc3)c(=O)[nH]c12` [NYAD-S21]: the CC50 in series [1] (setting [2]) is greater than 10 µM. Further, in the series with HIV-1 (setting [3]), the IC50 is less than 10 µM.

As for `Cc1cc(=O)n2c3ccccc3n(CC(O)CN3CCCCC3)c2c1C#N` (centres unmarked) [NYAD-S12], in series [1] (setting [4]), the CC50 is greater than 10 µM. Besides, the IC50 in the series on HIV-1 (Table 2, formula II) was greater than 10 µM.

`Cc1ccc2[nH]c(=O)c(CN(CC3CCCO3)C(=O)c3ccco3)cc2c1` (centres unmarked) [NYAD-S42]: in series [1] (setting [2]), the CC50 is greater than 10 µM. In the series on HIV-1 (setting [3]), the IC50 is greater than 10 µM.

Consider `Cc1ccc(NCC(O)Cn2c3ccccc3n3c(=O)cc(C)c(C#N)c23)cc1Cl` (centres unmarked) [NYAD-S57], for which the CC50 in series [1] (setting [4]) was greater than 10 µM. Further, in the series with HIV-1 (Table 2, formula II), the IC50 was greater than 10 µM.

For the molecule `Cc1cc(=O)n2c3ccccc3n(CC(O)CN3CCOCC3)c2c1C#N` (centres unmarked) [NYAD-S13], in series [1] (setting [4]), the CC50 is greater than 10 µM. For the same molecule, the IC50 with HIV-1 (Table 2, formula II) was greater than 10 µM.

Take `Cc1ccc2cc(CN(Cc3ccco3)C(=O)c3ccccc3F)c(=O)[nH]c2c1` [NYAD-S34]: in series [1] (setting [2]), the CC50 was greater than 10 µM. For the same molecule, in the series on HIV-1 (setting [3]), the IC50 is greater than 10 µM.

Turning to `Cc1ccc2[nH]c(=O)c(CN(Cc3ccco3)C(=O)c3ccc(Br)cc3)cc2c1` [NYAD-S36], in series [1] (setting [2]), the CC50 is greater than 10 µM. Moreover, the IC50 in the series on HIV-1 (setting [3]) was less than 10 µM.

Turning to `Cc1cc(C)c2[nH]c(=O)c(CN(Cc3ccco3)C(=O)c3ccccc3)cc2c1` [NYAD-S80], the CC50 in series [1] (setting [2]) is greater than 10 µM. For the same molecule, the IC50 with HIV-1 (setting [3]) is greater than 10 µM.

Consider `CCC(=O)N(Cc1ccco1)Cc1cc2cc(C)ccc2[nH]c1=O` [NYAD-S20], for which the CC50 in series [1] (setting [2]) is greater than 10 µM. Also, the IC50 in the series on HIV-1 (setting [3]) was greater than 10 µM.

Regarding `Cc1cc(=O)n2c3ccccc3n(CC(O)CNc3ccc(C(C)C)cc3)c2c1C#N` (centres unmarked) [NYAD-S59], the CC50 in series [1] (setting [4]) was less than 10 µM. In the series with HIV-1 (Table 2, formula II), this molecule registered an IC50 of less than 10 µM.

As to `Cc1cc(C)c2cc(CN(Cc3ccco3)C(=O)C3CCCCC3)c(=O)[nH]c2c1` [NYAD-S104], in series [1] (setting [2]), the CC50 is greater than 10 µM. The IC50 in the series with HIV-1 (setting [3]) is greater than 10 µM.

As for `COc1ccc2cc(CN(Cc3ccc4c(c3)OCO4)C(=S)Nc3ccc(C)cc3)c(=O)[nH]c2c1` [NYAD-S2], in series [1] (setting [2]), the CC50 is greater than 10 µM. Also, in the series with HIV-1 (setting [3]), the IC50 was greater than 10 µM.

In the case of `CCOc1ccc2[nH]c(=O)c(CN(Cc3ccco3)C(=O)c3ccc(C(C)(C)C)cc3)cc2c1` [NYAD-S108], in series [1] (setting [2]), the CC50 is greater than 10 µM. Moreover, the IC50 in the series on HIV-1 (setting [3]) is greater than 10 µM.

Consider `CCOc1ccc(NCC(O)Cn2c3ccccc3n3c(=O)cc(C)c(C#N)c23)cc1` (centres unmarked) [NYAD-S56], for which the CC50 in series [1] (setting [4]) was greater than 10 µM. The same molecule yielded an IC50 with HIV-1 (Table 2, formula II) greater than 10 µM.

In the case of `COc1ccc(C(=O)N(Cc2ccco2)Cc2cc3cc(C)ccc3[nH]c2=O)cc1OC` [NYAD-S41], in series [1] (setting [2]), the CC50 is greater than 10 µM. In the series on HIV-1 (setting [3]), the IC50 was greater than 10 µM.

As to `Cc1ccc(NCC(O)Cn2c3ccccc3n3c(=O)cc(C)c(C#N)c23)cc1` (centres unmarked) [NYAD-S52], in series [1] (setting [4]), the CC50 was greater than 10 µM. Besides, the IC50 with HIV-1 (Table 2, formula II) was greater than 10 µM.

As for `CCOc1ccc2[nH]c(=O)c(CN(Cc3ccco3)C(=O)c3ccc(Br)cc3)cc2c1` [NYAD-S94], the CC50 in series [1] (setting [2]) was greater than 10 µM. Further, the IC50 in the series with HIV-1 (setting [3]) is greater than 10 µM.

`CCOc1ccc2[nH]c(=O)c(CN(Cc3ccco3)C(=O)c3cc(OC)c(OC)c(OC)c3)cc2c1` [NYAD-S109]: in series [1] (setting [2]), the CC50 was greater than 10 µM. The IC50 in the series with HIV-1 (setting [3]) was greater than 10 µM.

As for `COc1ccc2cc(CN(Cc3ccco3)C(=O)c3ccccc3)c(=O)[nH]c2c1` [NYAD-S105], in series [1] (setting [2]), the CC50 was greater than 10 µM. Moreover, the IC50 with HIV-1 (setting [3]) is greater than 10 µM.

`COc1cccc(NCC(O)Cn2c3ccccc3n3c(=O)cc(C)c(C#N)c23)c1` (centres unmarked) [NYAD-S65]: the CC50 in series [1] (setting [4]) was greater than 10 µM. This molecule returned an IC50 in the series on HIV-1 (Table 2, formula II) greater than 10 µM.

Turning to `Cc1ccc2[nH]c(=O)c(CN(Cc3ccco3)C(=O)c3cccs3)cc2c1` [NYAD-S44], the CC50 in series [1] (setting [2]) was greater than 10 µM. Further, the IC50 with HIV-1 (setting [3]) was greater than 10 µM.

Take `Cc1cc(C)c2[nH]c(=O)c(CN(Cc3ccco3)C(=O)c3ccco3)cc2c1` [NYAD-S101]: in series [1] (setting [2]), the CC50 is greater than 10 µM. Also, the IC50 with HIV-1 (setting [3]) was greater than 10 µM.

For the molecule `Cc1cccc2cc(CN(Cc3ccco3)C(=O)c3cccc(F)c3)c(=O)[nH]c12` [NYAD-S118], the CC50 in series [1] (setting [2]) is greater than 10 µM. The IC50 with HIV-1 (setting [3]) is less than 10 µM.

On to `Cc1ccc2[nH]c(=O)c(CN(Cc3ccccc3)C(=O)c3ccco3)cc2c1` [NYAD-S37], for which the CC50 in series [1] (setting [2]) was greater than 10 µM. Besides, the IC50 in the series with HIV-1 (setting [3]) was less than 10 µM.

Regarding `COc1ccc2[nH]c(=O)c(CN(Cc3cccnc3)C(=S)Nc3ccc(F)cc3)cc2c1` [NYAD-S5], in series [1] (setting [2]), the CC50 was greater than 10 µM. Besides, the IC50 in the series on HIV-1 (setting [3]) is greater than 10 µM.
